This note sets out measurements from patent publication US8629173B2, “Solid forms comprising (+)-2-[1-(3-ethoxy-4-methoxyphenyl)-2-methylsulfonylethyl]-4-acetylaminoisoindoline-1,3-dione, compositions thereof, and uses thereof” (Celgene Corporation, priority 2002, dated 2014).

In one data set the test system is LPS-induced serum TNF-α. Kind of data set: Mouse LPS-induced serum TNF-α inhibition. It counts as in vivo. Particulars: po. On the procedure:
Compounds were tested in this animal model according to previously described methods (Corral et al., 1996, Mol. Med., 2:506-515). Mouse LPS-induced serum TNF-α inhibition (ED50, mg/kg, p.o.)=0.05 for Compound A.

Data set [1] has as its system LPS-induced TNF-α production from human PBMC. Kind of data set: LPS-induced TNF-α production from human PBMC. The data set is classed as cell-based. Particulars: LPS 100 ng/ml, 18-20 hours. On the procedure:
Lipopolysaccharide (LPS) is an endotoxin produced by gram-negative bacteria such as E. coli which induces production of many pro-inflammatory cytokines, including TNF-α. In peripheral blood mononuclear cells (PBMC), the TNF-α produced in response to LPS is derived from monocytes, which comprise approximately 5-20% of the total PBMC. Compounds were tested for the ability to inhibit LPS-induced TNF-α production from human PBMC as previously described (Muller et al., 1996, J. Med. Chem., 39:3238). PBMC from normal donors were obtained by Ficoll Hypaque (Pharmacia, Piscataway, N.J., USA) density centrifugation. Cells were cultured in RPMI (Life Technologies, Grand Island, N.Y., USA) supplemented with 10% AB±human serum (Gemini Bio-products, Woodland, Calif., USA), 2 mM L-glutamine, 100 U/ml penicillin, and 100 μg/ml streptomycin (Life Technologies).
PBMC (2×10^5 cells) were plated in 96-well flat-bottom Costar tissue culture plates (Corning, N.Y., USA) in triplicate. Cells were stimulated with LPS (Sigma, St. Louis, Mo., USA) at 100 ng/ml in the absence or presence of compounds. Compounds (Celgene Corp., Warren, N.J., USA) were dissolved in DMSO (Sigma) and further dilutions were done in culture medium immediately before use. The final DMSO concentration in all samples was 0.25%. Compounds were added to cells one hour before LPS stimulation. […]

Data set [2] has as its system IL-1β-induced TNF-α production from human PBMC. The experiment in a line: IL-1β-induced TNF-α production from human PBMC. The data set is classed as cell-based. Particulars: 18 h, read-out: IL-β-induced TNF-α IC50. On the procedure: During the course of inflammatory diseases, TNF-α production is often stimulated by the cytokine IL-1β, rather than by bacterially derived LPS. Compounds were tested for the ability to inhibit IL-1β-induced TNF-α production from human PBMC as described above for LPS-induced TNF-α production, except that the PBMC were isolated from source leukocyte units (Sera-Tec Biologicals, North Brunswick, N.J., USA) by centrifugation on Ficoll-Paque Plus (Amersham Pharmacia, Piscataway, N.J., USA), plated in 96-well tissue culture plates at 3×10^5 cells/well in RPMI-1640 medium (BioWhittaker, Walkersville, Md., USA) containing 10% heat-inactivated fetal bovine serum (Hyclone), 2 mM L-glutamine, 100 U/ml penicillin, and […] (complete medium), pretreated with compounds at 10, 2, 0.4, 0.08, 0.016, 0.0032, 0.00064, and 0 μM in duplicate at a final DMSO concentration of 0.1% at 37° C. in a humidified incubator at 5% CO2 for one hour, then stimulated with 50 ng/ml recombinant human IL-1β (Endogen) for 18 hours.

Another data set deals with bovine PDE1. Kind of data set: PDE1 enzyme assay. It counts as biochemical.
The subject of data set [3] is SEB-induced IFN-γ production. Kind of data set: cells. The data set is classed as cell-based. Particulars: Homo sapiens, PBMC, 18 h, read-out: IFN-γ IC50.
Data set [4] has as its system CD18 expression on neutrophils. The experiment in a line: fMLF-induced CD18 expression on neutrophils. The data set is classed as cell-based. Particulars: Neutrophil; human neutrophils, 30 nM fMLF. On the procedure: CD18/CD11b (Mac-1) expression on neutrophils was measured as previously described (Derian et al., 1995, J. Immunol., 154:308-3 17) with the following modifications. Neutrophils were isolated as described above, then resuspended in complete medium at 1×10^6 cells/ml, pretreated with compounds at 10, 1, 0.1, 0.01, and 0 μM in duplicate at a final DMSO concentration of 0.1% for 10 minutes at 37° C. 5% CO2. Cells were then stimulated with 30 nM fMLF for 30 minutes and then chilled to 4° C. Cells were treated with rabbit IgG (Jackson ImmunoResearch Labs, West Grove, Pa., USA) (10 μg/1×10^6 cells) to block Fc receptors, stained with CD18-FITC and CD11b-PE (Becton Dickinson), and analyzed by flow cytometry on a FACSCalibur. CD18/CD11b expression (mean fluorescence) in the absence of stimulation was subtracted from all samples to obtain inhibition curves and calculate IC50 values.

The conditions of data set [5]: pH 7.4.

In the case of `CCOc1cc(C(CS(C)(=O)=O)N2C(=O)c3cccc(NC(C)=O)c3C2=O)ccc1OC` (single isomer, unassigned; (+)) [Compound A, (+)-2-[1-(3-ethoxy-4-methoxyphenyl)-2-methylsulfonylethyl]-4-acetylaminoisoindoline-1,3-dione], the 50% effect level in the data set with LPS-induced serum TNF-α (ED50) was put at a dose of 0.05 mg/kg. The IC50 in data set [1] stood at 77 nM; in data set [2], 83 nM; in data set [3] it was 46 nM; in data set [4] it was 390 nM. For the same compound, in the data set on bovine PDE1 (10 μM), the “PDE1 (% inhib at 10 μM)” value stood at 23%. The “PDE Specificity Ratio PDE4/PDE1” value in the data set on bovine PDE1 (from Table 1 data) is listed as >500 fold. Also, the “aqueous solubility relative to the racemic mixture” value in data set [5] was determined as 3.5 fold.

As usually defined, the ED50 is the dose that gives a 50% effect, or the effect in half of the subjects. As usually defined, the IC50 is the midpoint of a concentration-inhibition curve.
